Measurements as given in article PMC7385359.
Values joined by “and” are separate entries in the source; they are usually repeats but may differ in a detail not shown here. Equal values may be shown once.

Assay: not told

Row | log partition 1-octanol / water | Compound
1 | 0.19 log10 | COC(=O)C1CC2(CC2)CN1C(C)=O (centres unmarked)
2 | 0.18 log10 and 0.03 log10 | COC(=O)C1CC2(CN1C(C)=O)CC2(F)F (centres unmarked)
